Results as given in US8530663B2, “1-(2-phenoxymethylheteroaryl)piperidine and piperazine compounds” (Theravance, Inc., priority 2010, dated 2013).

Columns and labels:
[1] = target: T1, hSERT (Homo sapiens, UniProt P31645); assay: hSERT membrane radioligand binding assay (3H-citalopram); details: hSERT membranes, 1.0 nM 3H-citalopram; for Ki: read-out: SERT pKi (converted)
T1 construct: expressed in transfected cells; host or cells: HEK-293
Method: (§1) Membrane radioligand binding assays were used to measure inhibition of labeled ligand (^3H-citalopram or ^3H-nisoxetine or ^3H-WIN35428) binding to membranes prepared from cells expressing the respective human recombinant transporter (hSERT or hNET or hDAT) in order to determine the pKi values of test compounds at the transporters.
(§2) Recombinant human embryonic kidney (HEK-293) derived cell lines stably transfected with hSERT or hNET, respectively, were grown in DMEM medium supplemented with 10% dialyzed FBS (for hSERT) or FBS (for hNET), 100 μg/ml penicillin, 100 μg/ml streptomycin, 2 mM L-glutamine and 250 μg/ml of the aminoglycoside antibiotic G418, in a 5% CO2 humidified incubator at 37° C. When cultures reached 80% confluence, the cells were washed thoroughly in PBS (without Ca^2+ and Mg^2+) and lifted with 5 mM EDTA in PBS. Cells were pelleted by centrifugation, resuspended in lysis buffer (10 mM Tris-HCl, pH7.5 containing 1 mM EDTA), homogenized, pelleted by centrifugation, then resuspended in 50 mM Tris-HCl, pH 7.5 and 10% sucrose at 4° C. Protein concentration of the membrane suspension was determined using a Bio-Rad Bradford Protein Assay kit. Membranes were snap frozen and stored at −80° C. Chinese hamster ovary membranes expressing hDAT (CHO-DAT) were purchased from PerkinElmer and stored at −80° C.
(§3) Binding assays were performed in a 96-well assay plate in a total volume of 200 μL assay buffer (50 mM Tris-HCl, 120 mM NaCl, 5 mM KCl, pH 7.4) with 0.5, 1, and 3 μg membrane protein, for SERT, NET and DAT, respectively.
(§4) Stock solutions (10 mM in DMSO) of test compound were prepared and serial dilutions made using Dilution Buffer (50 mM Tris-HCl, 120 mM NaCl, 5 mM KCl, pH 7.4, 0.1% BSA, 400 μM ascorbic acid).
(§5) Following a 60 minute incubation at 22° C. (or a period sufficient to reach equilibrium), the membranes were harvested by rapid filtration over a 96-well UniFilter GF/B plate, pretreated with 0.3% polyethyleneimine, and washed 6 times with 300 μl wash buffer (50 mM Tris-HCl, 0.9% NaCl, pH 7.5 at 4° C.). Plates were dried overnight at room temperature, ˜45 μl of MicroScint™-20 (Perkin Elmer) added and bound radioactivity quantitated via liquid scintillation spectroscopy. Inhibition curves and saturation isotherms were analyzed using GraphPad Prism Software package (GraphPad Software, Inc., San Diego, Calif.). IC50 values were generated from concentration response curves using the Sigmoidal Dose Response (variable slope) algorithm in Prism GraphPad. Kd and Bmax values for the radioligand were generated from saturation isotherms using the Saturation Binding Global Fit algorithm in Prism GraphPad. pKi (negative decadic logarithm of Ki) values for test compounds were calculated from the best-fit IC50 values, and the Kd value of the radioligand, using the Cheng-Prusoff equation (Cheng & Prusoff (1973) Biochem. Pharmacol. 22(23):3099-3108): Ki=IC50/(1+[L]/Kd), where [L]=concentration radioligand.

[2] = target: T2, hNET (Homo sapiens, UniProt P23975); assay: hNET membrane radioligand binding assay (3H-nisoxetine); details: hNET membranes, 1.0 nM 3H-nisoxetine; for Ki: read-out: NET pKi (converted)
T2 construct: expressed in transfected cells; host or cells: HEK-293
Method: as §1, §2, §3, §4, §5

T2 sequence (P23975 whole entry): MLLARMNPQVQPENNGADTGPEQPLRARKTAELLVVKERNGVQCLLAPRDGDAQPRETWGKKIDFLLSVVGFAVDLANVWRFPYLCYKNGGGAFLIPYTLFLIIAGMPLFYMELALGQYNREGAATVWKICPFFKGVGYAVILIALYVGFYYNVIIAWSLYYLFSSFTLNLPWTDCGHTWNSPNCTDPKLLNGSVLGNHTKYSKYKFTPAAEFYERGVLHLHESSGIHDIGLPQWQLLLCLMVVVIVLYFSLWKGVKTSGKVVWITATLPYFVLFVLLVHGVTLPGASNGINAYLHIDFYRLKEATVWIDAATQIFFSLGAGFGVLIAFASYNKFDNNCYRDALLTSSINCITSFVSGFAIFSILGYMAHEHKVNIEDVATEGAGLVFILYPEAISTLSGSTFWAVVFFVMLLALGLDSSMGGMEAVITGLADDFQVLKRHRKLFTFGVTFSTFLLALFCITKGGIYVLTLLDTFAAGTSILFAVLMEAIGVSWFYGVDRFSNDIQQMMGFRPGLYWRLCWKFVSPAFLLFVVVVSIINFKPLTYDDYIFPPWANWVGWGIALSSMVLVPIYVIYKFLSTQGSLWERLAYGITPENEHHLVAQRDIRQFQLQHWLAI
T1 sequence (P31645 whole entry): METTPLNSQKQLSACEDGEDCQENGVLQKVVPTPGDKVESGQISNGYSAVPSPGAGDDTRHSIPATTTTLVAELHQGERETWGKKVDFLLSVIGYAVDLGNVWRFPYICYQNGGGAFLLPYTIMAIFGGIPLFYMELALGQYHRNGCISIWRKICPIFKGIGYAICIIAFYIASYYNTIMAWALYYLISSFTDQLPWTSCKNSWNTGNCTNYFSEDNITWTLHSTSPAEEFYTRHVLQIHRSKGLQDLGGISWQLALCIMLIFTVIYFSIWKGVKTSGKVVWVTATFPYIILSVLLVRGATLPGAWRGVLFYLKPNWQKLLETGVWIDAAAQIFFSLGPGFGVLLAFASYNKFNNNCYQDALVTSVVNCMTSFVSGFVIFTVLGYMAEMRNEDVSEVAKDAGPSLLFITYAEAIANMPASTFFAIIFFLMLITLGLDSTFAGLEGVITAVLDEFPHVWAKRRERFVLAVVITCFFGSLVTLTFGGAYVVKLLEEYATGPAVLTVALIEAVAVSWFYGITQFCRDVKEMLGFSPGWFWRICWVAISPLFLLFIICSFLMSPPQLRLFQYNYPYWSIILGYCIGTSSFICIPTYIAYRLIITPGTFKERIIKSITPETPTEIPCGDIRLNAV

| SMILES | SERT pKi [1] | NET pKi [2] | Ki [1] | Ki [2] |
| --- | --- | --- | --- | --- |
| Clc1cccc(OCc2cccnc2C2CCNCC2)c1 [Example 14-3] | ≧7.0 | ≧5.0 |  |  |
| Clc1cccc(OCc2cscc2C2CCNCC2)c1 [Example 28-2] | ≧7.0 | ≧6.0 |  |  |
| Fc1cc(F)c(OCc2ncccc2C2CCNCC2)c(F)c1 [Example 1, 2-(2,4,6-Trifluorophenoxymethyl)-1′,2′,3′,4′,5′,6′-hexahydro[3,4]bipyridinyl] |  |  | ≤ 100 nM | ≤ 100 nM |
| Fc1ccccc1OCc1cnccc1C1CCNCC1 [Example 6-2] | ≧7.0 | ≧6.0 |  |  |
| Fc1cc(Cl)cc(F)c1OCc1cnccc1C1CCNCC1 [Example 6-8] | ≧7.0 | ≧6.0 |  |  |
| c1ccc(OCc2ccsc2C2CCNCC2)cc1 [Example 30, 4-(3-Phenoxymethylthiophen-2-yl)piperidine] |  |  | ≤ 100 nM | ≤ 100 nM |
| Fc1cc(Cl)cc(F)c1OCc1ccsc1C1CCNCC1 [Example 31-4] | ≧7.0 | ≧7.0 |  |  |
| Clc1cccc(Cl)c1OCc1cccnc1C1CCNCC1 [Example 14-6] | ≧7.0 | ≧7.0 |  |  |
| Fc1ccc(F)c(OCc2ncccc2C2CCNCC2)c1F [Example 2-7] | ≧7.0 | ≧6.0 |  |  |
| Fc1ccc(F)c(OCc2cnccc2C2CCNCC2)c1F [Example 6-6] | ≧7.0 | ≧6.0 |  |  |
| Fc1ccccc1OCc1cccnc1C1CCNCC1 [Example 14-2] | ≧6.0 | ≧7.0 |  |  |
| Clc1cccc(Cl)c1OCc1ccncc1C1CCNCC1 [Example 10-5] | ≧7.0 | ≧7.0 |  |  |
| Fc1cccc(F)c1OCc1cnccc1C1CCNCC1 [Example 5, 3′-(2,6-Difluorophenoxymethyl)-1,2,3,4,5,6-hexahydro[4,4′]bipyridinyl] |  |  | ≤ 100 nM | ≤ 100 nM |
| c1ccc(OCc2cnccc2C2CCNCC2)cc1 [Example 6-1] | ≧6.0 | ≧5.0 |  |  |
| Fc1ccccc1OCc1cscc1C1CCNCC1 [Example 28-1] | ≧7.0 | ≧7.0 |  |  |
| Fc1cc(Cl)cc(F)c1OCc1ncccc1C1CCNCC1 [Example 2-8] | ≧7.0 | ≧6.0 |  |  |
| Clc1cccc(Cl)c1OCc1sccc1C1CCNCC1 [Example 25-1] | ≧7.0 | ≧5.0 |  |  |
| Fc1cccc(Cl)c1OCc1cccnc1C1CCNCC1 [Example 14-5] | ≧7.0 | ≧7.0 |  |  |
| Fc1ccccc1OCc1ccncc1C1CCNCC1 [Example 10-2] | ≧7.0 | ≧7.0 |  |  |
| Clc1cccc(Cl)c1OCc1cnccc1C1CCNCC1 [Example 6-5] | ≧7.0 | ≧7.0 |  |  |
| Fc1cccc(F)c1OCc1ncccc1C1CCNCC1 [Example 2-4] | ≧6.0 | ≧7.0 |  |  |
| Clc1cccc(OCc2cnccc2C2CCNCC2)c1 [Example 6-3] | ≧7.0 | ≧5.0 |  |  |
| Fc1ccc(F)c(OCc2sccc2C2CCNCC2)c1F [Example 25-4] | ≧6.0 | ≧6.0 |  |  |

| SMILES | SERT pKi [1] | NET pKi [2] | Ki [1] | Ki [2] |
| --- | --- | --- | --- | --- |
| Clc1cccc(Cl)c1OCc1ncccc1C1CCNCC1 [Example 2-6] | ≧7.0 | ≧7.0 |  |  |
| c1ccc(OCc2ccncc2C2CCNCC2)cc1 [Example 10-1] | ≧6.0 | ≧6.0 |  |  |
| Fc1ccc(F)c(OCc2cnccc2C2CCNCC2)c1Cl [Example 6-9] | ≧7.0 | ≧7.0 |  |  |
| Fc1ccccc1OCc1ncccc1C1CCNCC1 [Example 2-2] | ≧6.0 | ≧7.0 |  |  |
| Fc1cc(Cl)cc(F)c1OCc1ccncc1C1CCNCC1 [Example 10-8] | ≧7.0 | ≧7.0 |  |  |
| Fc1cccc(F)c1OCc1sccc1C1CCNCC1 [Example 25-2] | ≧6.0 | ≧6.0 |  |  |
| Fc1ccc(F)c(OCc2cccnc2C2CCNCC2)c1F [Example 14-7] | ≧7.0 | ≧7.0 |  |  |
| Fc1cccc(F)c1OCc1cccnc1C1CCNCC1 [Example 14-4] | ≧6.0 | ≧7.0 |  |  |
| Fc1ccccc1OCc1ccsc1C1CCNCC1 [Example 31-1] | ≧6.0 | ≧7.0 |  |  |
| Clc1cccc(OCc2ccncc2C2CCNCC2)c1 [Example 10-6] | ≧7.0 | ≧6.0 |  |  |
| c1ccc(OCc2ncccc2C2CCNCC2)cc1 [Example 2-1] | ≧5.0 | ≧6.0 |  |  |
| Fc1cccc(Cl)c1OCc1sccc1C1CCNCC1 [Example 25-3] | ≧7.0 | ≧5.0 |  |  |
| Fc1cccc(F)c1OCc1ccncc1C1CCNCC1 [Example 10-3] | ≧7.0 | ≧7.0 |  |  |
| Fc1cccc(Cl)c1OCc1cnccc1C1CCNCC1 [Example 6-4] | ≧7.0 | ≧7.0 |  |  |
| Fc1cc(Cl)cc(F)c1OCc1cccnc1C1CCNCC1 [Example 14-8] | ≧7.0 | ≧7.0 |  |  |
| Fc1ccc(F)c(OCc2cscc2C2CCNCC2)c1Cl [Example 28-5] | ≧7.0 | ≧7.0 |  |  |
| Fc1cc(F)c(OCc2cnccc2C2CCNCC2)c(F)c1 [Example 6-7] | ≧7.0 | ≧7.0 |  |  |
| Fc1ccc(F)c(OCc2ccncc2C2CCNCC2)c1Cl [Example 10-9] | ≧7.0 | ≧7.0 |  |  |
| Clc1cccc(OCc2ncccc2C2CCNCC2)c1 [Example 2-3] | ≧7.0 | ≧5.0 |  |  |
| Fc1cc(Cl)cc(F)c1OCc1cscc1C1CCNCC1 [Example 28-4] | ≧7.0 | ≧7.0 |  |  |
| c1ccc(OCc2cccnc2C2CCNCC2)cc1 [Example 14-1] | ≧6.0 | ≧6.0 |  |  |
| Fc1cccc(Cl)c1OCc1ncccc1C1CCNCC1 [Example 2-5] | ≧7.0 | ≧7.0 |  |  |
| Fc1ccc(F)c(OCc2ccncc2C2CCNCC2)c1F [Example 10-7] | ≧7.0 | ≧7.0 |  |  |
